Data on 1 compound can be found in publication PMC9575003 (Pharmacology, biochemistry, and behavior, 2016).

In assay [1] the target is hSERT (serotonin transporter) (Homo sapiens, UniProt P31645). As to the kind of experiment: in vitro binding affinity.
The next assay concerns the target dopamine D4 receptor (Homo sapiens, UniProt P21917). The assay is described as follows: Ki, apparently from the radioligand screening panel.
In assay [2] the target is hNET (norepinephrine transporter) (Homo sapiens, UniProt P23975). The assay is described as follows: in vitro binding affinity.
Assay [3] has as its target hDAT (dopamine transporter) (Homo sapiens, UniProt Q01959). The assay is described as follows: in vitro binding affinity.

Chain of dopamine D4 receptor (P21917 whole entry): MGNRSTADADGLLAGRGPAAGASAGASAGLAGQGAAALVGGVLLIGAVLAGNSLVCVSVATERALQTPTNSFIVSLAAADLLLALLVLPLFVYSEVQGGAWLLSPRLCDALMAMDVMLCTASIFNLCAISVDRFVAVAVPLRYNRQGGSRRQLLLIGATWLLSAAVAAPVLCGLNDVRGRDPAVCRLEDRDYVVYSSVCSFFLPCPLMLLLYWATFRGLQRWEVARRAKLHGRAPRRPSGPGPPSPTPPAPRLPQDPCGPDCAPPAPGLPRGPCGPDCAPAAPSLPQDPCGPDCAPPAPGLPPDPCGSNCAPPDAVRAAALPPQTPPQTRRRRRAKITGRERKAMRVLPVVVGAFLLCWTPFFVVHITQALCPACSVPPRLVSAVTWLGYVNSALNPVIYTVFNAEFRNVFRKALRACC
Chain of hNET (norepinephrine transporter) (P23975 whole entry): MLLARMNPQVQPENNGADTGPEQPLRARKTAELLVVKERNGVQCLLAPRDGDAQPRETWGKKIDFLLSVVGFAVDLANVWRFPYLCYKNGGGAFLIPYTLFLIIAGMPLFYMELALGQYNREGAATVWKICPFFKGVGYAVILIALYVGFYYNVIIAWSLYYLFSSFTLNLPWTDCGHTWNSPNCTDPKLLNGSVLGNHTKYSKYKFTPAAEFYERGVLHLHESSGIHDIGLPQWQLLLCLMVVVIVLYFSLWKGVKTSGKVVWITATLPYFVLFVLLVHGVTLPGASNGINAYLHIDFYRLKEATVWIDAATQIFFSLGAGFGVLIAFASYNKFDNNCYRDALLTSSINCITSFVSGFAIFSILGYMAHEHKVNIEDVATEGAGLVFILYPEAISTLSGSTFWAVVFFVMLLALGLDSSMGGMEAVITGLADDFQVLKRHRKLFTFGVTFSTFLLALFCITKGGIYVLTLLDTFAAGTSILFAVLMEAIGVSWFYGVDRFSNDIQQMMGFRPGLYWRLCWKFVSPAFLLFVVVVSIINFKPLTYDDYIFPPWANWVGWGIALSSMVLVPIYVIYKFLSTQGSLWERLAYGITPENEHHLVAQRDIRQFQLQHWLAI
Chain of hSERT (serotonin transporter) (P31645 whole entry): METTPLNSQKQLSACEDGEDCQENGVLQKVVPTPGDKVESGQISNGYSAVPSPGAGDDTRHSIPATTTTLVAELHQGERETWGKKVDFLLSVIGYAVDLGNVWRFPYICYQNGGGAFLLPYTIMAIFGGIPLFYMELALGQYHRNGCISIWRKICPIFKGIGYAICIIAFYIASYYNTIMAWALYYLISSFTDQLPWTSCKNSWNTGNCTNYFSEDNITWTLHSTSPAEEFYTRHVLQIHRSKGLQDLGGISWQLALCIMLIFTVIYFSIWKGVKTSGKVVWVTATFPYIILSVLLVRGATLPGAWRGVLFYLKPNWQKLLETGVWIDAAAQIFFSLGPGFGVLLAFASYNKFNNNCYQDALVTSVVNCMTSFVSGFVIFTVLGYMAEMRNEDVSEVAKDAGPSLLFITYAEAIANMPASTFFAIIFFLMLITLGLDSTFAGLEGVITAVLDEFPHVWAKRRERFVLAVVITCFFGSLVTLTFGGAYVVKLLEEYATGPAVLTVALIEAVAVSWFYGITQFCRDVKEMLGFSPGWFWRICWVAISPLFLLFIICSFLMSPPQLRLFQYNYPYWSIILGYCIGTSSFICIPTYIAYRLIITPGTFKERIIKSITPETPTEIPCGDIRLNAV
Chain of hDAT (dopamine transporter) (Q01959 whole entry): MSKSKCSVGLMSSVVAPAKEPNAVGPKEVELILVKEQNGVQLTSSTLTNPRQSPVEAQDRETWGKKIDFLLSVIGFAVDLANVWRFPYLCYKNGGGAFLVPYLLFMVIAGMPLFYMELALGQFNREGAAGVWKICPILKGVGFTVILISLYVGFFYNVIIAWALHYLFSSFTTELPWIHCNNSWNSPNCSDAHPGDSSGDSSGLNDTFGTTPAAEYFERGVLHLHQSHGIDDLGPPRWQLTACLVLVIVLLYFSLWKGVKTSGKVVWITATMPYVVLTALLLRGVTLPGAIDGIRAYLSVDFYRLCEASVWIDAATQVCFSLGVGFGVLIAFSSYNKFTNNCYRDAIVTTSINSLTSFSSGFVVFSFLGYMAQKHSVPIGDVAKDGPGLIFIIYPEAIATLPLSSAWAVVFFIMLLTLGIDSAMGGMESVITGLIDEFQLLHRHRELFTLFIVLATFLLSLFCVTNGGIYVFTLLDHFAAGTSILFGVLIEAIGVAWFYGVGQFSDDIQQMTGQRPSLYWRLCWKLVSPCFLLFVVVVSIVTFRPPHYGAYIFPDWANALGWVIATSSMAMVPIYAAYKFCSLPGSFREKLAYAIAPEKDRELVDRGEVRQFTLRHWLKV

As to `C[C@@H](CN1CCC(Cc2ccccc2)CC1)C(O)c1ccc(O)cc1` (stereo partly shown) [MI-4, Ro-25-6981], the Ki in assay [1] is 0.67 µM; at dopamine D4 receptor, 0.12 µM; in assay [2], 0.365 µM; in assay [3] it was 3.46 µM.
